Test results from PubChem BioAssay AID1963874 (Molecular Pharmacology Branch, DTP, NCI, 2024).

Tested on: 253994-281-T-J1-PDC KRAS-mutant spheroids with HUVEC/MSC, viability
Test: Anticancer human tumor 253994-281-T-J1-PDC patient-derived colorectal carcinoma cell line growth inhibition [KRAS2]
Conditions: for IC50: curve of first compound; for viability, T/C: stronger effect = lower value
Procedure, shortened: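 Combination screen of spheroid viability in tumor-cell co-cultures with endothelial (HUVEC) and mesenchymal stem cell stroma. Each agent was tested in half-log dilutions, topping at clinical Cmax or at 10 microM without a known Cmax.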

[1] = second compound 0.1 µM, first compound 0.0316 µM
[2] = second compound 0.1 µM, first compound 0.1 µM
[3] = second compound 0.1 µM, first compound 0.316 µM
[4] = second compound 0.1 µM, first compound 1 µM
[5] = second compound 0.1 µM, first compound 3.16 µM
[6] = second compound 0.1 µM, first compound 10 µM
[7] = second compound 0.316 µM, first compound 0.0316 µM
[8] = second compound 0.316 µM, first compound 0.1 µM
[9] = second compound 0.316 µM, first compound 0.316 µM
[10] = second compound 0.316 µM, first compound 1 µM
[11] = second compound 0.316 µM, first compound 3.16 µM
[12] = second compound 0.316 µM, first compound 10 µM
[13] = second compound 1 µM, first compound 0.0316 µM
[14] = second compound 1 µM, first compound 0.1 µM
[15] = second compound 1 µM, first compound 0.316 µM
[16] = second compound 1 µM, first compound 1 µM
[17] = second compound 1 µM, first compound 3.16 µM
[18] = second compound 1 µM, first compound 10 µM
[19] = second compound 3.16 µM, first compound 0.0316 µM
[20] = second compound 3.16 µM, first compound 0.1 µM
[21] = second compound 3.16 µM, first compound 0.316 µM
[22] = second compound 3.16 µM, first compound 1 µM
[23] = second compound 3.16 µM, first compound 3.16 µM
[24] = second compound 3.16 µM, first compound 10 µM
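Further: spheroids exposed to agents for seven days before readout.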
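Wherever viability, T/C is given: percent of DMSO vehicle control viability.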

Row | Compound | IC50 (second compound 0.1 µM) [µM] | IC50 (second compound 0.316 µM) [µM] | IC50 (second compound 1 µM) [µM] | IC50 (second compound 3.16 µM) [µM] | viability, T/C [1] [%] | viability, T/C [2] [%] | viability, T/C [3] [%] | viability, T/C [4] [%] | viability, T/C [5] [%] | viability, T/C [6] [%] | viability, T/C [7] [%] | viability, T/C [8] [%] | viability, T/C [9] [%] | viability, T/C [10] [%] | viability, T/C [11] [%] | viability, T/C [12] [%] | viability, T/C [13] [%] | viability, T/C [14] [%] | viability, T/C [15] [%] | viability, T/C [16] [%] | further results
1 | Cn1nccc1Nc1nccc(-c2cc3c(s2)C(C)(C)N(CCN2CCOCC2)C3=O)n1 + C=CC(=O)N1CCN(c2nc(OCC3CCCN3C)nc3c2CCN(c2cccc4cccc(C)c24)C3)CC1CC#N | 2.63 | 2.15 | 3.04 | 0.181 | 92.3 | 96.3 | 88.7 | 73.5 | 45.6 | 29.4 | 95.5 | 103 | 96.7 | 67.4 | 43.1 | 30.4 | 107 | 98.9 | 73.9 | 80.3 | IC50 (second compound 0.0316 µM): 4.45 µM; viability, T/C (second compound 0.0316 µM, first compound 0.0316 µM): 92.7%; viability, T/C (second compound 0.0316 µM, first compound 0.1 µM): 99%; viability, T/C (second compound 0.0316 µM, first compound 0.316 µM): 89.1%; viability, T/C (second compound 0.0316 µM, first compound 1 µM): 72.4%; viability, T/C (second compound 0.0316 µM, first compound 3.16 µM): 62.2%; viability, T/C (second compound 0.0316 µM, first compound 10 µM): 28%; viability, T/C [17]: 44.6%; viability, T/C [18]: 27.4%; viability, T/C [19]: 64%; viability, T/C [20]: 53.6%; viability, T/C [21]: 45.2%; viability, T/C [22]: 20.8%; viability, T/C [23]: 4.92%; viability, T/C [24]: 1.02%
2 | CC1OCC2(CCN(c3cnc(Sc4ccnc(N)c4Cl)c(N)n3)CC2)C1N (stereo not given) + C=CC(=O)N1CCN(c2nc(=O)n(-c3c(C)ccnc3C(C)C)c3nc(-c4c(O)cccc4F)c(F)cc23)C(C)C1 | 8.95 | 6.56 | > 10 | 9.85 | 89.8 | 87.4 | 81.8 | 82.3 | 70.7 | 47.6 | 89.5 | 88.3 | 89.3 | 70.6 | 60.4 | 44.6 | 84.2 | 90.5 | 77 | 82.7 | IC50 (second compound 10 µM): > 10 µM; viability, T/C [17]: 60.6%; viability, T/C [18]: 51.6%; viability, T/C [19]: 80.5%; viability, T/C [20]: 74.9%; viability, T/C [21]: 75.6%; viability, T/C [22]: 72.4%; viability, T/C [23]: 63.4%; viability, T/C [24]: 49.8%; viability, T/C (second compound 10 µM, first compound 0.0316 µM): 85.1%; viability, T/C (second compound 10 µM, first compound 0.1 µM): 75.2%; viability, T/C (second compound 10 µM, first compound 0.316 µM): 74%; viability, T/C (second compound 10 µM, first compound 1 µM): 69.6%; viability, T/C (second compound 10 µM, first compound 3.16 µM): 57%; viability, T/C (second compound 10 µM, first compound 10 µM): 51.5%
